Assays:
[1] = Selectivity against other biological thiols and ions (fluorescence response); format: biochemical; details: 20 μM probe, 20 minutes; 100 μM Na2S, Na2SO3, Na2SO4, Na2S2O3, Hcy, Cys or 1 mM GSH; phosphate buffer pH 7.4
Description: The selectivity of TrxR1 for probe 1 was evaluated against other biological thiols and ions. Probe 1, at a concentration of 20 μM, was incubated for 20 minutes with 0.12 units TrxR1, 100 μM Na2S, 100 μM Na2SO3, 100 μM Na2SO4, 100 μM Na2S2O3, 100 μM homocysteine (Hcy), 100 μM cysteine (Cys), or 1 mM glutathione (GSH) in 100 mM phosphate buffer, pH 7.4; 10 mM EDTA, 0.2 mg/mL BSA and 0.24 mM NADPH.

A375 melanoma cell line = assay: MTS cytotoxicity assay (CellTiter 96 Aqueous One Solution); format: cell-based; details: Homo sapiens, A-375, A375 cells
Description: (§1) MTS cytotoxicity assays for probe 1 were carried out using the CellTiter 96® Aqueous One Solution Cell Proliferation Assay (Promega Corporation, Madison, WI), with A375 and SK-MEL-5 melanoma cell lines. The following treatment groups were made:
(§2) The IC50 is the probe concentration required to kill 50% of the cells in the specified time period.

[2] = tested on: SK-MEL-5 melanoma cell line; assay: as above; format: cell-based; details: Homo sapiens, SK-MEL-5 cells
Description: as §1, §2

TrxR1 from rat liver = target: T1, TrxR1 from rat liver (Rattus norvegicus, UniProt O89049); assay: TrxR1 enzymatic assay and kinetic study (fluorescence increase, NADPH depletion); format: biochemical
T1 construct: from tissue; host or cells: rat liver
T1 sequence (O89049 1-499): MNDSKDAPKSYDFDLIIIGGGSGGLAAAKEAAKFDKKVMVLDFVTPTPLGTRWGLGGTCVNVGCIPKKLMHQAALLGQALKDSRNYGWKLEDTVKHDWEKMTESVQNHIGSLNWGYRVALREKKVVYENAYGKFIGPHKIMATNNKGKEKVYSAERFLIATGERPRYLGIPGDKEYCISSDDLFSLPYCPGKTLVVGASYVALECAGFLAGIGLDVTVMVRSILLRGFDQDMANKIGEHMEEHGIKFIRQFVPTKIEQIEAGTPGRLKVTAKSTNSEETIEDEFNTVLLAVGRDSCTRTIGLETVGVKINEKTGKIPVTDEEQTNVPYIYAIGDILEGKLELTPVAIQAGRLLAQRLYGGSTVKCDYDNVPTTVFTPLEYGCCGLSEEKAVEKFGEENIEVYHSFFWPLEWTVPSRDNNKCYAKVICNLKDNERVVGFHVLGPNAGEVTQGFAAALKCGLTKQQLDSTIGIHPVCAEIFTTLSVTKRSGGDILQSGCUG
Description: Enzymatic assays were carried out using TrxR1 from rat liver in the presence of 20 μM probe 1, 10 mM EDTA, 0.2 mg/mL BSA, and 0.24 mM NADPH in phosphate buffer (100 mM, pH 7.4). This solution was pipetted into four different wells in a 96-well plate. 0.03, 0.06 and 0.12 units of TrxR1 were added to different reaction mixtures. Control experiments were set up by omitting either probe 1, NADPH or TrxR1 from the mixtures. After all the reagents had been mixed, the wells were immediately monitored for change in fluorescence (λex=531 nm; λem=580 nm) and NADPH absorbance (λabs,max 340 nm). TrxR1 activity was monitored via fluorescence emission increase of probe 1 (λex=531 nm; λem=580 nm) as well as the depletion of NADPH (λabs=340 nm) upon incubation. Reactions were monitored in black 96-well plates with clear bottoms using a fluorescence plate reader. NADPH and TrxR1 were both required for the conversion of probe 1 to compound 2 and the concomitant turn-on emission (FIG. 2). […] The proposed mechanism for the reaction of probe 1 in the presence of TrxR1 and NADPH is shown in Scheme 7. Nucleophilic attack of the diselenide occurs through the TrxR1 […] residue. The selenolate formed attacks the carbamate carbonyl, and an oxaselenolanone heterocycle and the fluorescent probe 2 are released.
Kinetic studies were carried out for six reaction mixtures with varying amounts (1-20 μM) of probe 1 over 20 min. Reaction mixtures were made with concentrations of: TrxR1 0.12 units, 100 mM phosphate buffer, pH 7.4; 10 mM EDTA, 0.2 mg/mL BSA and 0.24 mM NADPH. 1 was added at different concentrations in the reaction mixture: 20 μM, 10 μM, 5 μM, 3 μM, 1 μM and 0 μM. The reaction was monitored through the change in fluorescence (λex=531 nm; λem=580 nm) and a fluorescence vs time graph was plotted for each substrate concentration (FIG. 3). […] The fluorescence data also was plotted as a reaction rate vs substrate concentration graph (FIG. 4).

[3] = Turn-on response of probe on reduction of the diselenide with dithiothreitol (DTT); details: 10 μM probe
Description: To determine if determine if probe 1 would elicit a turn-on response, dithiothreitol (DTT) was used to reduce the diselenide into the selenolate. DTT is known to reduce both disulfides and diselenides. Excitation and emission spectra were obtained for a 10 μM solution of 1 in 0.3% DMSO, 0.2% NP-40 (nonyl phenoxypolyethoxylethanol), 1 mM EDTA, and 50 mM Tris buffer, pH 7.4, initially without DTT and then with an equimolar amount of DTT (FIG. 1).
To investigate the reactivity and optical responses of probe 1, an aqueous solution of 10 μM probe 1, 10 μM DTT in 0.3% DMSO, 0.2% NP-40, 1 mM EDTA and 50 mM Tris buffer, pH 7.4 was prepared. DTT is a powerful reducing agent for both diselenides and disulfides and might be expected to react with probe 1 by a mechanism similar to the TrxR1 enzyme. […] Excitation at 531 nm afforded emission with a λmax at 580 nm, as expected for the formation of compound 2, which was also monitored by HPLC-MS.

[4] = Maximum absorbance and emission wavelengths of the seminaphthofluorophore scaffolds; format: physicochemical; details: seminaphthofluorophore scaffold (without the diselenide moiety/moieties) of the compound; 10% DMSO, 100 mM phosphate buffer, pH 7.4
Description: Initial absorbance measurements were performed on a Cary Eclipse™ 50 Bio UV-Vis spectrophotometer. Fluorescence measurements were performed on a Cary Eclipse™ fluorescence spectrophotometer (Agilent Technologies, Santa Clara, CA).

[5] = equimolar DTT, 0.3% DMSO, 0.2% NP-40, 1 mM EDTA, 50 mM Tris buffer, pH 7.4

COc1cccc2ccc3c(c12)Oc1cc(NC(=O)OCC[Se][Se]CCO)ccc1C31OC(=O)c2ccccc21 (stereo not drawn) [Probe 1]
Change in fluorescence with other thiols and ions compared with TrxR1 [1]: None afforded a significant change in fluorescence
IC50 (A375 melanoma cell line; 24 hours): 3530 nM
IC50 (A375 melanoma cell line; 48 hours): 2230 nM
IC50 (A375 melanoma cell line; 72 hours): 2550 nM
IC50 ([2]; 24 hours): 4770 nM
IC50 ([2]; 48 hours): 3100 nM
IC50 ([2]; 72 hours): 2300 nM
Time at which fluorescence intensity began to plateau (TrxR1 from rat liver; 20 μM probe, 0.12 units TrxR, 0.24 mM NADPH, phosphate buffer pH 7.4, λex 531 nm, λem 580 nm): 20 min
Fluorescence in the absence of NADPH or TrxR (TrxR1 from rat liver; 20 μM probe, control omitting NADPH or TrxR1): no fluorescence was observed
Km (TrxR1 from rat liver; 1-20 μM probe, 0.12 units TrxR1, 0.24 mM NADPH, 100 mM phosphate buffer pH 7.4, 20 min): 15.9 µM
Emission λmax after addition of DTT ([3]; 10 μM DTT, Tris buffer pH 7.4, excitation at 531 nm, formation of compound 2): 580 nm
Colour change of solution with DTT [3, 5]: colorless to red
Fluorescence turn-on response with DTT [3, 5]: instantaneous turn-on response
λmax, abs (nm) [4]: 531 nm
λmax, em (nm) [4]: 580 nm

Reference: patent US12358923B2, “Seminaphthofluorophore-selenium probes for thioredoxin reductase” (Portland State University, priority 2019, dated 2025)
